{"source": "patent US7947280B2", "about": "(priority 2003, dated 2011)", "key": {"[1]": {"biological_target": "T1, APJ (Homo sapiens, UniProt P35414)", "T1 sequence (P35414 1-380)": "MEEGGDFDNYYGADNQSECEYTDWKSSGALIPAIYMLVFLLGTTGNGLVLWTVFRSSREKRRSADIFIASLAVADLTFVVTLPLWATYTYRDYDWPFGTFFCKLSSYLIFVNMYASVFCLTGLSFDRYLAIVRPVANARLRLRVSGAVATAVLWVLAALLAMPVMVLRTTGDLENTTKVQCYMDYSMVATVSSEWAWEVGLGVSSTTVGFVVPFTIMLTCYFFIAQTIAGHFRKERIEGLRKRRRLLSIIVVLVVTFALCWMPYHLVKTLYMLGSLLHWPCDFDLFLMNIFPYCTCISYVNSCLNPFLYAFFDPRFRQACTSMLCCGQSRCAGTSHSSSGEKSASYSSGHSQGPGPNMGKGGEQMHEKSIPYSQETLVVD", "conditions": "cited from earlier work"}, "[2]": {"tested_on": "C57B/16 mice", "experiment": "Magnetic resonance imaging after intraperitoneal apelin-12 injection", "format": "in vivo, mouse", "conditions": "post apelin-12 300 μg/kg intraperitoneal, one hour prior to scanning; n=9", "procedure": "Magnetic resonance imaging. […] Platinum needle ECG leads were inserted subcutaneously. Respiration was monitored by means of a pneumatic pillow sensor positioned against the abdomen. Mouse body temperature was maintained during scanning at 37° C. by a flow of heated air thermostatically controlled by a rectal temperature probe. Magnetic resonance images were acquired on a 4.7T Oxford magnet controlled by a Varian Inova console (Varian, Palo Alto, Calif.) using a transmit-receive, quadrature, volume coil with an inner diameter of 3.5 cm. Image acquisition was gated to respiration and to the ECG R wave (SA Instruments, Stony Brook, N.Y.). Coronal and sagittal scout images led to the acquisition of multiple contiguous 1 mm thick, short axis slices orthogonal to the interventricular septum. […] Planimetry measurements of end diastolic and end systolic dimension were derived offline from short axis views of the left ventricle at the level of the papillary muscles using ImageJ software (National Institutes of Health, Bethesda, Md.). Ejection fraction was calculated as [[…]. Data Analysis. […] Exact p values are reported for all comparisons."}, "[3]": {"tested_on": "ApoE-KO mice", "experiment": "Vein graft neointimal hyperplasia model", "format": "in vivo, mouse", "conditions": "AngII infusion", "procedure": "(§1) Animals. Mice were maintained in temperature-controlled (20° C. to 22° C.) environment with a 12-hour light-dark cycle. Sterile water and standard chow diet were available ad libitum. All mice were C57BL/6J ApoE-KO male mice (Jackson Laboratories, Bar Harbor, […].) between the ages of 8-12 weeks. […] Animal procedures were carried out in accordance with the Institutional Review Board Guidelines at Stanford University."}, "[4]": {"tested_on": "AT1R and APJ heterodimerization", "experiment": "AT1R-APJ receptor heterodimerization by immunoprecipitation", "format": "cell-based", "conditions": "AngII, 1 and 6 hours of treatment; co-transfected cells", "procedure": "(§2) Cells were immediately lysed.\nImmunoprecipitation and Western Blotting Immunoprecipitation was performed as previously described (REF). In brief, cells were lysed using 10× Cell Lysis Buffer (Cell Signaling Technologies CITY). Lysates were precleared with protein G and immunoprecipitation was performed with the respective antibodies at concentration of 1 mg/mL for 24 hrs at 4C. Protein G agarose was added and incubated for additional 2 hours. Western blotting on SDS-PAGE gels were performed as previously described, and the bands were visualized using the enhanced chemiluminescence system (Amersham Biosciences)."}, "[5]": {"tested_on": "ApoE-KO mice", "experiment": "Atherosclerotic lesion analysis in ApoE-KO mice", "format": "in vivo, mouse", "procedure": "as §1, with “Sterile water and standard chow diet were available ad libitum.” left out\nTissue preparation, histology and lesion quantification. Mice were euthanized 28 days following implantation of osmotic mini-pumps. The thoracic cage was removed and the animal perfused with phosphate buffered saline solution (PBS) for 2 minutes. The entire aorta and vein graft were exposed and the periadventitial tissue and scar tissue dissected and removed. Subsequently mice were perfusion fixed in situ with 4% phosphate-buffered paraformaldehyde. In some animals aorta and lung were removed fresh for biochemical assays.\nAtherosclerotic Lesion Analysis Atherosclerosis lesion area was determined as described previously. Briefly, the arterial tree was perfused with PBS (pH 7.3) and then perfusion fixed with phosphate-buffered paraformaldehyde (3%, pH 7.3). The heart and full length of the aorta-to-iliac bifurcation was exposed and dissected carefully from any surrounding tissues. Aortas were then opened along the ventral midline and dissected free of the animal and pinned out flat, intimal side up, onto black wax. Aortic images were captured with a digital camera (DMC1) mounted on a Leica MZ6 stereomicroscope and analyzed using Fovea Pro (Reindeer Graphics, Asheville, N.C.). Percent lesion area was calculated as total lesion area divided by total surface area."}, "[6]": {"tested_on": "superoxide production in aortic tissue of apoE knockout mice", "experiment": "Lucigenin-enhanced chemiluminescence of aortic superoxide", "format": "in vivo, mouse", "procedure": "Lucigenin-enhanced chemiluminescence. Total aortic superoxide was measured by lucigenin-enhanced chemiluminescence as described previously. Aortas were harvested flushed with Krebs-HEPES buffer, opened longitudinally and divided into halves. Vessels were gassed with 95% oxygen/5% carbon dioxide in warmed Krebs-HEPES buffer for 30 minutes before measurements of chemiluminescence in a luminometer (manufacturer, location) using 20 μmol/L lucigenin. One half of each vessel was incubated in L-NAME (1 mmol/L). After measuring baseline readings for 4 minutes, samples were equilibrated and dark adapted for 5 mins, and chemiluminescence was recorded for 10 minutes. Recordings were performed blinded to the samples identity. Results were expressed as counts per second per milligram of tissue dry weight."}, "[7]": {"biological_target": "T2, AT1R (Rattus norvegicus, UniProt P25095)", "T2 construct": "expressed in transfected cells; host or cells: HEK-293", "T2 sequence (P25095 1-359)": "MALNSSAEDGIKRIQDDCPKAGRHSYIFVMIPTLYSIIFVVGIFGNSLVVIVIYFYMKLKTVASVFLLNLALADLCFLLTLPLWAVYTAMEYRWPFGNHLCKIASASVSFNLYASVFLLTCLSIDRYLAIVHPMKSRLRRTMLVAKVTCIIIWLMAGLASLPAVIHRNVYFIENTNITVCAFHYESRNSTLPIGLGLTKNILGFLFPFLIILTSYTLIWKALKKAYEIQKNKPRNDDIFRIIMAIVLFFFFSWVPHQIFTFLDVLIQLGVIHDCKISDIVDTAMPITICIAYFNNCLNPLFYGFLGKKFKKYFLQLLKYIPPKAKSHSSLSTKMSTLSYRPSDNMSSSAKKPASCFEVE", "experiment": "Competitive ligand binding with FAM-labeled AngII in HEK-293 cells", "conditions": "unlabeled ligand 100 nM; HEK-293 cells transfected with AT1R"}, "[8]": {"tested_on": "ApoE-KO mice", "experiment": "AngII induced abdominal aortic aneurysm formation model", "format": "in vivo, mouse", "procedure": "as §1\nAbdominal aortic aneurysm formation, sudden death and vein graft procedure. […] Abdominal aortic aneurysm was defined as ≧50% enlargement of the maximal abdominal aorta diameter. Mice that were found dead without any preceding signs of suffering were defined as sudden death."}, "[9]": {"biological_target": "T1, APJ", "conditions": "cited from earlier work", "remark": "listed apart in the source"}, "[10]": {"tested_on": "NFκB, NFAT, AP-1 and SRE reporter constructs", "experiment": "Luciferase reporter assays of AngII nuclear signaling in HEK-293 cells", "format": "cell-based", "conditions": "HEK-293 cells co-transfected with AT1; AngII stimulation", "description": "cDNA Constructs APJ expression construct was purchased from cDNA.org. AT1R construct was obtained from Dr. Marc Caron. AT1R transcript was inserted into a pEGFP-N1 vector (Clonetech). The NF-kB and SRE luciferase reporter constructs were obtained from BD Biosciences.\nas §2"}, "[11]": {"tested_on": "superoxide production in aortic sections", "experiment": "Dihydroethidium oxidative fluorescence microtopography", "format": "in vivo, mouse", "procedure": "Oxidative fluorescent microtopography. Superoxide was detected in the layers of the vessel wall using fluorescent probe dihydroethidium as described previously. Fresh segments of upper descending thoracic aorta were frozen in OCT compound. […] Molecular Probes). Images were obtained on a confocal microscope (Bio-Rad MRC-1024 laser; filter settings: excitation filter 488 nm; emission filter 550 nm). 2-hydroxyethidium fluorescence was measured from high power (60× mag) images. Endothelium by quantifying fluorescence (intensity×area) on the luminal side of the internal elastic lamina, media between the internal and external elastic lamina, and adventitia outside the external elastic lamina. Quantification was performed using Image Pro Plus software (Media Cybernetics, Silver Springs, Md.). Medial Analysis was performed blind to the samples identity."}}, "note": "“Also recorded” adds a separate entry of the source."}
{"compound": "H-Arg-Pro-Arg-Leu-Ser-His-Lys-Gly-Pro-Met-Pro-Phe-OH [apelin-12]", "values": [{"measurement": "activation of APJ", "setting": "[1]", "result": "activate APJ"}, {"measurement": "Ejection fraction", "setting": "[2]", "result": "upward trend"}, {"measurement": "heart rate (inverse of R-R interval of electrocardiogram)", "setting": "[2]", "result": "significant increase"}, {"measurement": "left ventricular end diastolic area", "setting": "[2]", "result": "significant reduction; also recorded: significantly decreased"}]}
{"compound": "apelin-17", "values": [{"measurement": "activation of APJ", "setting": "[1]", "result": "activate APJ"}]}
{"compound": "angiotensin II (DRVYIHPF) [AngII, peptide infused to promote vascular disease and heart failure; AT1R ligand, reference compound]", "values": [{"measurement": "increase of vein graft wall area vs saline treated controls", "setting": "[3]", "result": 33, "unit": "%"}, {"measurement": "AT1R-APJ receptor heterodimerization", "setting": "[4]", "result": "significantly enhanced"}, {"measurement": "increase of descending aorta atherosclerosis vs saline treated controls", "setting": "[5]; AngII 1.4 mg/kg/day, 4 week minipump infusion", "result": 82, "unit": "%"}, {"measurement": "progression of atherosclerosis in aortic root (FIG. 17)", "setting": "[5]; osmotic minipump during high fat diet exposure", "result": "do not alter"}, {"measurement": "increase in total chemiluminescence (superoxide)", "setting": "[6]; AngII infusion", "result": 10, "unit": "fold"}, {"measurement": "competition for binding of FAM-AngII (10 nM) to AT1R", "setting": "[7]", "result": "competes"}, {"measurement": "animals with aneurysm formation", "setting": "[8]; AngII for four weeks", "result": "11/12"}, {"measurement": "incidence of AAA formation within 4 weeks", "setting": "[8]; single agent infusion", "result": 92, "unit": "%"}, {"measurement": "binding to APJ", "setting": "[9]", "result": "does not bind"}, {"measurement": "reporter transcription (NFκB, NFAT, AP-1, SRE)", "setting": "[10]", "result": "significant increase"}]}
{"compound": "COc1cc(C(C)=O)ccc1O", "note": "[apocynain]", "values": [{"measurement": "total medial fluorescence after incubation with NADPH oxidase inhibitor", "setting": "[11]; aortic sections from apelin treated mice", "result": "did not find this effect"}, {"measurement": "total medial fluorescence after incubation with NADPH oxidase inhibitor", "setting": "[11]; aortic sections from saline, AngII and apelin+AngII treated mice, 50 μmol/l", "result": "dramatically reduced; also recorded: blocked"}]}
{"compound": "COC(=O)[C@@H](N)CCCNC(=N)N[N+](=O)[O-]", "note": "[L-NAME]", "values": [{"measurement": "increase in total superoxide production on incubation with L-NAME", "setting": "[6]; aorta from apelin treated mice, L-NAME 1 mmol/L", "result": 2, "unit": "fold"}, {"measurement": "total superoxide levels on incubation with L-NAME", "setting": "[6]; aorta from saline, AngII or AngII+apelin treated animals, L-NAME 1 mmol/L", "result": "not significantly different"}]}
{"compound": "H-Leu-Val-Gln-Pro-Arg-Gly-Ser-Arg-Asn-Gly-Pro-Gly-Pro-Trp-Gln-Gly-Gly-Arg Arg-Lys-Phe-Arg-Arg-Gln-Arg-Pro-Arg-Leu-Ser-His-Lys-Gly-Pro-Met-Pro-Phe-OH (H-LVQPRGSRNGPGPWQGGRRKFRRQRPRLSHKGPMPF-OH; listed as Homo sapiens) [apelin-36]", "values": [{"measurement": "activation of APJ", "setting": "[1]", "result": "activate APJ"}]}
